The target of test [1] is human SCD1 (Homo sapiens (Human), UniProt O00767). Description: Yeast growth assay, strain expressing human SCD1 as the sole desaturase (reduced growth as surrogate for SCD inhibition). The format is cell-based. To be noted: yeast with OLE1 deleted expressing human SCD1 from a plasmid; growth read as OD600 after 40 h at 30° C.; top drug concentration 33.3 μM. In outline:
(§1)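 Human SCD1 or SCD5 expressed from a plasmid in OLE1-deleted yeast as the sole desaturase. Cells washed free of Tween and fatty acids, grown with compound in SD-Ura glucose medium 40 h at 30 °C; growth measured as OD600, reduced growth taken as SCD inhibition.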

Test [2] deals with human SCD5 (Homo sapiens (Human), UniProt Q86SK9). Description: Yeast growth assay, strain expressing human SCD5 as the sole desaturase (reduced growth as surrogate for SCD inhibition). The format is cell-based. To be noted: yeast with OLE1 deleted expressing human SCD5 from a plasmid; growth read as OD600 after 40 h at 30° C.; top drug concentration 33.3 μM. In outline: as §1
Chain of human SCD5 (Q86SK9 whole entry): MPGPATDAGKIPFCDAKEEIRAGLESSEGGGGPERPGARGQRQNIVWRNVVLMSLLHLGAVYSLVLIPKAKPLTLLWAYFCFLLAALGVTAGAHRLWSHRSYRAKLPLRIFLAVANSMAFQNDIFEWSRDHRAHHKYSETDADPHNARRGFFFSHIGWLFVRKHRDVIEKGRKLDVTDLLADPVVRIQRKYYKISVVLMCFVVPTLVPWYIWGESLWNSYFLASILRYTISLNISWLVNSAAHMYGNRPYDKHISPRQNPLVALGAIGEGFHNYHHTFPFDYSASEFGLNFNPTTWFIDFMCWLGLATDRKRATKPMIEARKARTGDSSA

Molecules are shown by their SMILES. Where only a bound is given, the exact number is not on record here.

Chain of human SCD1 (O00767 whole entry): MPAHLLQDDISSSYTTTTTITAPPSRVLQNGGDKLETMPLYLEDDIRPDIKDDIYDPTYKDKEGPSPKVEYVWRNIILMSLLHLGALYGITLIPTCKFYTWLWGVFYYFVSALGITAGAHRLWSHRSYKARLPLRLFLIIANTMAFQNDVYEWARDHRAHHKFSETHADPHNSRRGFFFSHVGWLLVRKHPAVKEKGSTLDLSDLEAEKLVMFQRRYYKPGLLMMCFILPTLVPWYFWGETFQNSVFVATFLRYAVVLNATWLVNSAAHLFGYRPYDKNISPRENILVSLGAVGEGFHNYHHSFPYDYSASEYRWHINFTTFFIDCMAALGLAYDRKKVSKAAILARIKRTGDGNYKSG

As to `O=C(c1cc(-c2ccc3c(c2)OCO3)on1)N1CCCC1c1ccccc1F` (centres unmarked) [Compound 366], the IC50 in test [1] and in test [2] was over 45 µM in each case.
Turning to `CS(=O)(=O)CCC(c1ccccc1)n1cc(NC(=O)c2cc(-c3ccccc3)on2)cn1` (centres unmarked) [Compound 75], the IC50 in test [1] and in test [2] was over 45 µM each time.
Take `O=C(c1cc(-c2ccccc2)on1)N1CCC(c2ccccc2)CC1` [Compound 314, (5-phenylisoxazol-3-yl)(4-phenylpiperidin-1-yl)methanone]: the IC50 is over 45 µM in test [1] and 1.63 µM in test [2].
For `Cc1nnc(-c2cc(C(=O)Nc3cnn(Cc4ccccc4)c3)no2)s1` [Compound 163], in that order: over 45 µM and over 45 µM.

Broadly, the IC50 is the concentration needed to halve the response being measured. Read a high IC50 as a need for much substance.
